Literature values in patent US20090275622A1, “NIZATIDINE FORMULATIONS” (priority 2008, published 2009).

Settings: crystalline solid

In the case of `CN/C(=C\[N+](=O)[O-])NCCSCc1csc(CN(C)C)n1` [Nizatidine, N-[2-[[[2-[(dimethylamino)methyl]-4-thiazolyl]methyl]thio]ethyl]-N′-methyl-2-nitro-1,1-ethenediamine], the Solubility in water is listed as “soluble in water”.
